From the supplement of paper PMC10307832 come the findings set out here.

What all share (experiment): relative viability (nuclei count vs DMSO), 5 days (fraction); higher = more cells survive
In one experiment the test system is NCI-H1623. The procedure, abridged: (§1)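 Cells from lung cancer lines were seeded into 1536-well plates and, one day later, dosed by pin tool. Treatments were either a single drug or a fixed dose of an anchor drug with five library-drug doses (not always all listed) in √10 steps. After 5 days, nuclei were stained in a one-step fixation (final 0.05% Triton X-100, 1% formaldehyde, 1 ug/ml Hoechst) and counted on 4× images, and relative viability is the treated-to-vehicle nuclei ratio, as the median of duplicate plates.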

The subject of a further experiment is NCI-H2126. The procedure, abridged: as §1
The next experiment relates to A549. In outline:
as §1

Another experiment relates to NCI-H1299. The procedure, abridged: as §1
The next experiment has as its system EBC-1. In outline:
as §1

A further experiment relates to Calu-6. The procedure, abridged: as §1
Another experiment relates to NCI-H1648. In outline: as §1
The subject of the next experiment is IA-LM. In outline: as §1
The next experiment relates to NCI-H1703. In outline: as §1

For the molecule `CC(C)Oc1cc(Nc2nc(N[C@@H](C)c3ccc(F)cn3)ncc2Cl)n[nH]1` [AZ23] + CCNC(=O)c1noc(-c2cc(C(C)C)c(O)cc2O)c1-c1ccc(CN2CCOCC2)cc1 [Luminespib] (partner 0.01 µM), the relative viability in the experiment on NCI-H1623 (first compound 0.01 µM) worked out at 0.476; with NCI-H1623 (first compound 0.03162 µM), 0.49; in the experiment on NCI-H1623 (first compound 0.3162 µM), 0.529; in the experiment on NCI-H2126 (first compound 0.01 µM), 0.954; in the experiment on NCI-H2126 (first compound 0.03162 µM), 1; in the experiment with NCI-H2126 (first compound 0.3162 µM) it was 0.875.

`CC(C)Oc1cc(Nc2nc(N[C@@H](C)c3ccc(F)cn3)ncc2Cl)n[nH]1` [AZ23] + Cc1nc(Nc2ncc(C(=O)Nc3c(C)cccc3Cl)s2)cc(N2CCN(CCO)CC2)n1 [Dasatinib] (partner 0.075 µM): the relative viability turned out to be 0.503 in the experiment on NCI-H1623 (first compound 0.01 µM); 0.578 in the experiment on NCI-H1623 (first compound 0.03162 µM); 0.57 in the experiment with NCI-H1623 (first compound 0.3162 µM); 0.573 in the experiment with NCI-H2126 (first compound 0.01 µM); 0.715 in the experiment with NCI-H2126 (first compound 0.03162 µM); 0.56 in the experiment on NCI-H2126 (first compound 0.3162 µM).

For the molecule `CC(C)Oc1cc(Nc2nc(N[C@@H](C)c3ccc(F)cn3)ncc2Cl)n[nH]1` [AZ23] + N=C(N)NC(=N)NCCc1ccccc1 [Phenformin] (partner 250 µM), the relative viability with A549 (first compound 0.01 µM) is 0.181; in the experiment with A549 (first compound 0.03162 µM) it was 0.227; in the experiment with A549 (first compound 0.3162 µM) it was 0.176; with NCI-H1623 (first compound 0.01 µM), 0.54; in the experiment on NCI-H1623 (first compound 0.03162 µM), 0.618; with NCI-H1623 (first compound 0.3162 µM), 0.61. In addition, the relative viability in the experiment on NCI-H2126 (first compound 0.01 µM) was 0.51; with NCI-H2126 (first compound 0.03162 µM), 0.539; with NCI-H2126 (first compound 0.3162 µM) it was 0.532.

As to `CC(C)Oc1cc(Nc2nc(N[C@@H](C)c3ccc(F)cn3)ncc2Cl)n[nH]1` [AZ23] + O=C(c1cc(Cc2n[nH]c(=O)c3ccccc23)ccc1F)N1CCN(C(=O)C2CC2)CC1 [Olaparib] (partner 8 µM), the relative viability in the experiment with NCI-H1299 (first compound 0.01 µM) amounted to 1.06; with NCI-H1299 (first compound 0.03162 µM), 0.984; in the experiment on NCI-H1299 (first compound 0.3162 µM) it was 1.03; in the experiment on EBC-1 (first compound 0.01 µM), 0.884; in the experiment on EBC-1 (first compound 0.03162 µM) it was 0.767; in the experiment on EBC-1 (first compound 0.3162 µM), 0.734. The relative viability was found to be 0.662 in the experiment on Calu-6 (first compound 0.03162 µM); 0.644 in the experiment with Calu-6 (first compound 0.3162 µM); 0.201 in the experiment with A549 (first compound 0.01 µM); 0.54 in the experiment on A549 (first compound 0.03162 µM); 0.327 in the experiment with A549 (first compound 0.3162 µM); 0.996 with NCI-H2126 (first compound 0.01 µM). Also, the relative viability with NCI-H2126 (first compound 0.03162 µM) was found to be 0.924; in the experiment on NCI-H2126 (first compound 0.3162 µM) it was 0.888; in the experiment on NCI-H1648 (first compound 0.01 µM), 0.6; in the experiment on NCI-H1648 (first compound 0.03162 µM), 1.01; in the experiment with NCI-H1648 (first compound 0.3162 µM) it was 0.697; in the experiment with IA-LM (first compound 0.01 µM), 0.79. In addition, the relative viability in the experiment with IA-LM (first compound 0.03162 µM) was 0.914; in the experiment on IA-LM (first compound 0.3162 µM) it was 0.949; in the experiment on NCI-H1703 (first compound 0.03162 µM) it was 0.411; in the experiment with NCI-H1703 (first compound 0.3162 µM), 0.397.

For the molecule `COc1cc(N2CCC(C(N)=O)CC2)ccc1Nc1nc(N)c(Cl)c(Nc2ccccc2S(=O)(=O)C(C)C)n1` [HG-5-88-01] + CCNC(=O)c1noc(-c2cc(C(C)C)c(O)cc2O)c1-c1ccc(CN2CCOCC2)cc1 [Luminespib] (partner 0.01 µM), the relative viability was found to be 0.539 with NCI-H1623 (first compound 0.04 µM); 0.619 with NCI-H1623 (first compound 0.1265 µM); 0.529 with NCI-H1623 (first compound 0.4 µM); 0.47 with NCI-H1623 (first compound 4 µM); 0.836 in the experiment with NCI-H2126 (first compound 0.04 µM); 0.975 in the experiment on NCI-H2126 (first compound 0.1265 µM). Also, the relative viability with NCI-H2126 (first compound 0.4 µM) was found to be 0.861; in the experiment on NCI-H2126 (first compound 1.265 µM) it was 0.699; in the experiment on NCI-H2126 (first compound 4 µM), 0.57.

Turning to `COc1cc(N2CCC(C(N)=O)CC2)ccc1Nc1nc(N)c(Cl)c(Nc2ccccc2S(=O)(=O)C(C)C)n1` [HG-5-88-01] + Cc1nc(Nc2ncc(C(=O)Nc3c(C)cccc3Cl)s2)cc(N2CCN(CCO)CC2)n1 [Dasatinib] (partner 0.075 µM), the relative viability with NCI-H1623 (first compound 0.04 µM) is 0.533; with NCI-H1623 (first compound 0.1265 µM) it was 0.532; in the experiment with NCI-H1623 (first compound 0.4 µM), 0.498; with NCI-H1623 (first compound 4 µM) it was 0.486; in the experiment on NCI-H2126 (first compound 0.04 µM), 0.617; with NCI-H2126 (first compound 0.1265 µM), 0.565. The relative viability with NCI-H2126 (first compound 0.4 µM) came out at 0.449; with NCI-H2126 (first compound 1.265 µM), 0.34; in the experiment on NCI-H2126 (first compound 4 µM), 0.259.

As for `COc1cc(N2CCC(C(N)=O)CC2)ccc1Nc1nc(N)c(Cl)c(Nc2ccccc2S(=O)(=O)C(C)C)n1` [HG-5-88-01] + N=C(N)NC(=N)NCCc1ccccc1 [Phenformin] (partner 250 µM), the relative viability with A549 (first compound 0.04 µM) worked out at 0.246; in the experiment on A549 (first compound 0.1265 µM), 0.24; in the experiment with A549 (first compound 0.4 µM), 0.327; in the experiment on A549 (first compound 1.265 µM), 0.347; in the experiment on A549 (first compound 4 µM) it was 0.183; with NCI-H1623 (first compound 0.04 µM), 0.651. The relative viability in the experiment on NCI-H1623 (first compound 0.1265 µM) was 0.618; in the experiment with NCI-H1623 (first compound 0.4 µM) it was 0.561; in the experiment with NCI-H1623 (first compound 4 µM), 0.524; in the experiment on NCI-H2126 (first compound 0.04 µM) it was 0.552; in the experiment on NCI-H2126 (first compound 0.1265 µM), 0.58; with NCI-H2126 (first compound 0.4 µM), 0.525. For the same molecule, the figures for the relative viability in the experiment on NCI-H2126 (first compound 1.265 µM) and in the experiment on NCI-H2126 (first compound 4 µM) were 0.461 and 0.384, respectively.
